Measurements reported in patent US12202839B2, “In-flow photooxygenation of aminothienopyridinones generates PTP4A3 phosphatase inhibitors” (University of Virginia Patent Foundation, priority 2018, dated 2025).
Entries after “also recorded” stand apart in the source; their conditions may differ.

Columns and labels:
[1] = test system: Hs578T; test: Loss of spheroid viability after 48-hour exposure, preexisting spheroids, CellTiterGlo 3D; assay type: cell-based; details: Homo sapiens, Hs-578T, N=3, read-out: Cellular IC50 values for loss of spheroid viability after 48-hour exposure (μM ± S.E.M.)
[2] = test system: Kuramochi; test: as above; assay type: cell-based; details: Homo sapiens, N=3, read-out: Cellular IC50 values for loss of spheroid viability after 48-hour exposure (μM ± S.E.M.)
[3] = test system: MDA-MB-231; test: as above; assay type: cell-based; details: Homo sapiens, MDA-MB-231 spheroids, N=3, read-out: Cellular IC50 values for loss of spheroid viability after 48-hour exposure (μM ± S.E.M.)
[4] = test system: OVCAR4; test: as above; assay type: cell-based; details: Homo sapiens, OVCAR-4, 48 h, N=3, read-out: Cellular IC50 values for loss of spheroid viability after 48-hour exposure (μM ± S.E.M.)
[5] = biological target: recombinant human His6-tagged PTP4A1 (Homo sapiens (Human), UniProt Q93096); test: In vitro biochemical analysis of PTP4A inhibition, DiFMUP substrate; details: for IC50: DiFMUP 12 μM, 25° C., 25 minutes, read-out: IC50 values for Compounds Inhibiting Activity of PTP4A Family Members (mean (nM) ± S.E.M.), PTP4A1
[6] = biological target: recombinant human His6-tagged PTP4A2 (Homo sapiens (Human), UniProt Q12974); test: as above; details: for IC50: DiFMUP 12 μM, 25° C., 25 minutes, read-out: IC50 values for Compounds Inhibiting Activity of PTP4A Family Members (mean (nM) ± S.E.M.), PTP4A2
[7] = biological target: recombinant human His6-tagged PTP4A3 (Homo sapiens (Human), UniProt O75365); test: as above; details: for IC50: DiFMUP 12 μM, 25° C., 25 minutes, read-out: IC50 values for Compounds Inhibiting Activity of PTP4A Family Members (mean (nM) ± S.E.M.), PTP4A3; for preference among the PTP4A family members (PTP4A3 versus PTP4A1, PTP4A2), in words: comparison of the IC50 values of Table 4
[8] = biological target: Recombinant human PTP4A3 phosphatase (Homo sapiens (Human), UniProt O75365); test: In vitro inhibition of PTP4A3 phosphatase activity (automated enzymatic assay); assay type: biochemical; details: mean of N independent assays, 10-point concentration curves, six replicates; read-out: IC50 (nM) ± SEM
[9] = test system: Kasumi (human AML); test: Leukemia/lymphoma cell viability, Alamar blue; assay type: cell-based; details: 48 h, read-out: EC50 (mean μM ± SEM)
[10] = test system: C1498 (mouse AML); test: Leukemia/lymphoma cell viability, Alamar blue; assay type: cell-based; details: C1498, 48 h, read-out: EC50 (mean μM ± SEM)
[11] = test system: MOLT4 (human TALL); test: Leukemia/lymphoma cell viability, Alamar blue; assay type: cell-based; details: MOLT-4, 48 h, read-out: EC50 (mean μM ± SEM)
[12] = test system: RS4;11 (human BALL); test: Leukemia/lymphoma cell viability, Alamar blue; assay type: cell-based; details: RS4-11, 48 h, read-out: EC50 (mean μM ± SEM)
[13] = test system: MV-4-11 (human AML/ALL); test: Leukemia/lymphoma cell viability, Alamar blue; assay type: cell-based; details: MV4-11, 48 h, read-out: EC50 (mean μM ± SEM)
[14] = test system: K562 (human CML); test: Leukemia/lymphoma cell viability, Alamar blue; assay type: cell-based; details: K562, 48 h, read-out: EC50 (mean μM ± SEM)
[15] = test system: U937 (human Histiocytic lymphoma); test: Leukemia/lymphoma cell viability, Alamar blue; assay type: cell-based; details: U-937, 48 h, read-out: EC50 (mean μM ± SEM)
[16] = test system: HL60 (human APML); test: Leukemia/lymphoma cell viability, Alamar blue; assay type: cell-based; details: HL-60, 48 h, read-out: EC50 (mean μM ± SEM)
[17] = test system: HL60-VCR (drug resistant human APML); test: Leukemia/lymphoma cell viability, Alamar blue; assay type: cell-based; details: HL60/VCR, 48 h, read-out: EC50 (mean μM ± SEM)
[18] = test system: COV362-47R; test: Monolayer cancer cell viability, Alamar blue; assay type: cell-based; details: COV362-47R monolayer, 48-hour exposure, read-out: EC50 (mean μM ± SEM)
[19] = test system: COV362; test: Monolayer cancer cell viability, Alamar blue; assay type: cell-based; details: 48-hour exposure, read-out: EC50 (mean μM ± SEM)
[20] = test system: OVCAR4; test: Monolayer cancer cell viability, Alamar blue; assay type: cell-based; details: Homo sapiens, OVCAR-4, 48 h, read-out: EC50 (mean μM ± SEM)
[21] = test system: OVSAHO; test: Monolayer cancer cell viability, Alamar blue; assay type: cell-based; details: Homo sapiens, OVSAHO, 48 h, read-out: EC50 (mean μM ± SEM)
[22] = test system: V581; test: Monolayer cancer cell viability, Alamar blue; assay type: cell-based; details: 48 h, read-out: EC50 (mean μM ± SEM)
[23] = test system: Hs578T; test: Monolayer cancer cell viability, Alamar blue; assay type: cell-based; details: Homo sapiens, Hs-578T, 48 h, read-out: EC50 (mean μM ± SEM)
[24] = test system: COV362-47R; test: Spheroid growth viability, CellTiterGlo 3D; assay type: cell-based; details: COV362-47R spheroid, 48 hour exposure, read-out: EC50 (mean μM ± SEM)
[25] = test system: COV362; test: Spheroid growth viability, CellTiterGlo 3D; assay type: cell-based; details: 48 hour exposure, read-out: EC50 (mean μM ± SEM)
[26] = test system: Kuramochi; test: Spheroid growth viability, CellTiterGlo 3D; assay type: cell-based; details: 48 h, read-out: EC50 (mean μM ± SEM)
[27] = test system: OVCAR4; test: Spheroid growth viability, CellTiterGlo 3D; assay type: cell-based; details: Homo sapiens, OVCAR-4, 48 h, read-out: EC50 (mean μM ± SEM)
[28] = test system: OVSAHO; test: Spheroid growth viability, CellTiterGlo 3D; assay type: cell-based; details: Homo sapiens, 48 h, read-out: EC50 (mean μM ± SEM)
[29] = test system: V581; test: Spheroid growth viability, CellTiterGlo 3D; assay type: cell-based; details: 48 h, read-out: EC50 (mean μM ± SEM)

Sequence of recombinant human His6-tagged PTP4A2 (Q12974 whole entry): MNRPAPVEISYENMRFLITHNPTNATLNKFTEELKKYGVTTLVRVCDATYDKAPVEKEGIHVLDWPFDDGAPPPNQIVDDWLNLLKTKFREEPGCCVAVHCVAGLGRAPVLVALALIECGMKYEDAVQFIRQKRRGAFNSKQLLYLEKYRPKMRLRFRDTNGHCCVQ
Sequence of Recombinant human PTP4A3 phosphatase (O75365 whole entry): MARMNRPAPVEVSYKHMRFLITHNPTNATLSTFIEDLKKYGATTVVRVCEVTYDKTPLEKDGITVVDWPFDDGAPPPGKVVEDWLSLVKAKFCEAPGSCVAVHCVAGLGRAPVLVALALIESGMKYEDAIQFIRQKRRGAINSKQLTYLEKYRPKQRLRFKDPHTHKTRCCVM
Sequence of recombinant human His6-tagged PTP4A3 (O75365 whole entry): as above
Sequence of recombinant human His6-tagged PTP4A1 (Q93096 whole entry): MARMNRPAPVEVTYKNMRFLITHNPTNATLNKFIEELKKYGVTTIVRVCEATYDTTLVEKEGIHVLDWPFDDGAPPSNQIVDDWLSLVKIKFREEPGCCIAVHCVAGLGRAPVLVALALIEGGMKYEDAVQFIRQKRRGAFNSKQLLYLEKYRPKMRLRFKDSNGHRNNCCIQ

SMILES: O=c1[nH]c(=O)c2cc(-c3ccccc3)sc2[nH]1 [JMS-038, 6-phenylthieno[2,3-d]pyrimidine-2,4(1H,3H)-dione, reference compound]
- IC50 [1]: > 50 µM
- IC50 [2]: > 50 µM
- IC50 [3]: > 50 µM
- IC50 [4]: > 50 µM
- IC50 [5]: > 1000 nM
- inhibition of PTP4A1 (in words) ([5]; DiFMUP, 25-minute incubation): inactive
- IC50 [6]: > 1000 nM
- inhibition of PTP4A2 (in words) ([6]; DiFMUP, 25-minute incubation): inactive
- IC50 [7]: > 1000 nM
- inhibition of PTP4A3 (in words) ([7]; DiFMUP, 25-minute incubation): failed to inhibit; also recorded: inactive

SMILES: N=C1C(=O)NC(=O)c2cc(-c3ccccc3)sc21 [Compound 2, 7-Imino-2-phenylthieno[3,2-c]pyridine-4,6(5H,7H)-dione, reference compound]
- IC50 [1]: 8.48 ± 2.38 µM
- IC50 [2]: 13.2 ± 0.65 µM
- IC50 [3]: 32.7 ± 7.02 µM
- IC50 [4]: 4.42 µM

SMILES: N=C1C(=O)NC(=O)c2cc(-c3ccc(Cl)cc3)sc21 [Compound 9b, 2-(4-Chlorophenyl)-7-iminothieno[3,2-c]pyridine-4,6(5H,7H)-dione]
- IC50 [8]: 41.9 ± 1.15 nM

SMILES: N=C1C(=O)NC(=O)c2cc(-c3ccc(F)c(Cl)c3)sc21 [Compound 9n, 2-(3-Chloro-4-fluorophenyl)-7-iminothieno[3,2-c]pyridine-4,6(5H,7H)-dione]
- IC50 [8]: 67.7 ± 3 nM

SMILES: N=C1C(=O)NC(=O)c2cc(-c3cccc(C(F)(F)F)c3)sc21 [Compound 9g, 7-Imino-2-(3-(trifluoromethyl)phenyl)thieno[3,2-c]pyridine-4,6(5H,7H)-dione]
- IC50 [8]: 193 ± 6.06 nM

SMILES: CC(C)(C)C(=O)Oc1ccc(-c2cc3c(s2)C(=N)C(=O)NC3=O)cc1 [Compound 9e, 4-(7-Imino-4,6-dioxo-4,5,6,7-tetrahydrothieno[3,2-c]pyridin-2-yl)phenyl pivalate]
- IC50 [8]: 256 ± 12.3 nM

SMILES: Cc1cccc(-c2cc3c(s2)C(=N)C(=O)NC3=O)c1 [Compound 9i, 7-Imino-2-(m-tolyl)thieno[3,2-c]pyridine-4,6(5H,7H)-dione]
- IC50 [8]: 53.4 ± 1.46 nM

SMILES: CN1C(=O)C(=N)c2sc(-c3ccccc3)cc2C1=O [Compound 9p, 7-Imino-5-methyl-2-phenylthieno[3,2-c]pyridine-4,6(5H,7H)-dione]
- IC50 [8]: 48.9 ± 12 nM
- IC50 [1]: 10.1 ± 1.93 µM
- IC50 [2]: 34.1 ± 8.6 µM
- IC50 [3]: 61.5 ± 9.66 µM
- IC50 [4]: 11.5 ± 2.38 µM
- IC50 [5]: 133 ± 31.7 nM
- IC50 [7]: 86 nM
- preference among the PTP4A family members (PTP4A3 versus PTP4A1, PTP4A2), in words [7]: more pronounced preference for PTP4A3

SMILES: N=C1C(=O)NC(=O)c2cc(-c3ccc(OCCCCNC(=O)CC45CC6CC(CC(C6)C4)C5)cc3)sc21 [EJR-876-35]
- EC50 [9]: 4.3 ± 1.3 µM
- EC50 [10]: 1.2 ± 0.2 µM
- EC50 [11]: 1 ± 0.1 µM
- EC50 [12]: 2.2 ± 0.4 µM
- EC50 [13]: 4.5 ± 1.8 µM
- EC50 [14]: 25.6 ± 2.8 µM
- EC50 [15]: 6.87 ± 0.4 µM
- EC50 [16]: 1.6 ± 0.2 µM
- EC50 [17]: 17.7 ± 3.8 µM
- EC50 [18]: 25.2 ± 6.2 µM
- EC50 [19]: 25.7 ± 5.3 µM
- EC50 [20]: 15.5 ± 4.7 µM
- EC50 [21]: 18.8 ± 2.2 µM
- EC50 [22]: > 50 µM
- EC50 [23]: 6.2 µM
- EC50 [24]: > 50 µM
- EC50 [25]: 16 ± 3.7 µM
- EC50 [26]: > 50 µM
- EC50 [27]: 16.7 ± 1.9 µM
- EC50 [28]: 21.1 ± 2.8 µM
- EC50 [29]: 44.4 µM

SMILES: N=C1C(=O)NC(=O)c2cc(-c3ccccc3F)sc21 [Compound 9l, 2-(2-Fluorophenyl)-7-iminothieno[3,2-c]pyridine-4,6(5H,7H)-dione]
- IC50 [8]: 53.4 ± 1.46 nM

SMILES: N=C1C(=O)NC(=O)c2cc(-c3ccccc3Cl)sc21 [Compound 9k, 2-(2-Chlorophenyl)-7-iminothieno[3,2-c]pyridine-4,6(5H,7H)-dione]
- IC50 [8]: 36.1 ± 1.43 nM
- IC50 [1]: 14.4 ± 4.91 µM
- IC50 [2]: > 50 µM
- IC50 [3]: > 50 µM
- IC50 [4]: 12.3 ± 2.26 µM
- IC50 [5]: 49 ± 5 nM
- IC50 [7]: 36.1 nM
- preference among the PTP4A family members (PTP4A3 versus PTP4A1, PTP4A2), in words [7]: more pronounced preference for PTP4A3

SMILES: N=C1C(=O)NC(=O)c2cc(-c3cccc(Cl)c3)sc21 [Compound 9h, 2-(3-Chlorophenyl)-7-iminothieno[3,2-c]pyridine-4,6(5H,7H)-dione]
- IC50 [8]: 65.7 ± 4.13 nM

SMILES: N=C1C(=O)N(CC2CC2)C(=O)c2cc(-c3ccccc3)sc21 [Compound 9q, 5-(Cyclopropylmethyl)-7-imino-2-phenylthieno[3,2-c]pyridine-4,6(5H,7H)-dione]
- IC50 [8]: 85.7 ± 5.96 nM

SMILES: N=C1C(=O)NC(=O)c2cc(-c3ccc(OCCN4CCOCC4)cc3)sc21 [Compound 9o, 7-Imino-2-(4-(2-morpholinoethoxy)phenyl)thieno[3,2-c]pyridine-4,6(5H, 7H)-dione]
- IC50 [8]: 98.2 ± 2.49 nM
- IC50 [1]: 12 ± 3.84 µM
- IC50 [2]: > 50 µM
- IC50 [3]: > 50 µM
- IC50 [4]: 19.6 ± 4.66 µM
- IC50 [5]: 43.2 ± 8.5 nM
- IC50 [6]: 73.9 ± 10 nM
- IC50 [7]: 98.2 nM
- preference among the PTP4A family members (PTP4A3 versus PTP4A1, PTP4A2), in words [7]: little preference

SMILES: COc1cccc(-c2cc3c(s2)C(=N)C(=O)NC3=O)c1 [Compound 9j, 2-(3-Methoxyphenyl)-7-iminothieno[3,2-c]pyridine-4,6(5H,7H)-dione]
- IC50 [8]: 47.6 ± 2.68 nM

SMILES: N=C1C(=O)NC(=O)c2cc(-c3ccc(F)cc3)sc21 [Compound 9d, 2-(4-Fluorophenyl)-7-iminothieno[3,2-c]pyridine-4,6(5H,7H)-dione]
- IC50 [8]: 71 ± 2.54 nM

SMILES: CN1C(=O)C(=O)c2sc(-c3ccccc3)cc2C1=O [NRT-892-04]
- IC50 [8]: 32.2 ± 3.52 nM
